Test results reported in patent US12377110B2, “Fospropofol methods and compositions” (Epalex Corporation, priority 2019, dated 2025).
Read-outs that look alike come from different tables or passages of the source.

Experiment: Study A16 Part 1: PK of single ascending oral doses of fospropofol disodium (200 to 2000 mg), fasted healthy adults
Assay type: in vivo, human
Settings: for half-life / AUC(0-t) / AUC(0-inf): both sexes; for half-life: read-out: Fospropofol t1/2 (converted); for AUC(0-t): read-out: Fospropofol AUC0-T; for AUC(0-inf): read-out: Fospropofol AUC0-∞; for Tmax: read-out: Fospropofol Tmax
Protocol: Part 1 of Study A16 was a double-blind, randomized, placebo-controlled study to investigate the safety-tolerability and PK of oral administration of single ascending doses of fospropofol disodium to healthy adult male and female volunteers.
Subjects were healthy adults (age 18-55 years inclusive, BMI 18-29.9 kg/m^2). Separate cohorts of 12 subjects each were randomized to receive fospropofol disodium at doses of 200, 400, 800, 1000, 1200, 1600, or 2000 mg (n=10 per cohort) or matching placebo (n=2 per cohort).
Subjects were admitted to the clinical unit for an overnight fast (Day −1), administered study drug on Day 1, and remained in the clinical unit until Day 2.
Fospropofol disodium was formulated as powder in an HPMC capsule, each capsule containing 200 mg of fospropofol disodium (weight adjusted for water content). Placebo was administered as an appropriate number of matching capsules.
Based on PK results from the early cohorts, sampling times were optimized beginning with Cohort 3 (800 mg) to preclose, 5, 10, 15, 20, 25, 30, 37, and 45, minutes and 1, 2, 4, 6, and 9 hours after closing.

[1] = human, plasma, oral fospropofol disodium 1200 mg, mean
[2] = human, plasma, oral fospropofol disodium 1600 mg, mean
[3] = human, plasma, oral fospropofol disodium 2000 mg, mean
[4] = oral fospropofol disodium 1200 mg, Fasted (Cohort 5), n = 10, mean
[5] = subjects 301-312 (800 mg cohort)

## CC(C)c1cccc(C(C)C)c1OCOP(=O)(O)O [fospropofol, (2,6-diisopropylphenoxy)methyl dihydrogen phosphate]
human, plasma, oral fospropofol disodium 1000 mg, mean
  half-life: 17.4 min
[1]
  AUC(0-t): 4400 ng·h/mL
  AUC(0-inf): 4500 ng·h/mL
  half-life: 20.4 min
[2]
  AUC(0-t): 6090 ng·h/mL
  AUC(0-inf): 6300 ng·h/mL
  half-life: 21 min
[3]
  AUC(0-t): 10800 ng·h/mL
  AUC(0-inf): 11000 ng·h/mL
  half-life: 22.2 min
By 2 hours after dosing
  Fospropofol concentration relative to Cmax: less than 10 % of Cmax
Dose 200 mg FOSPDiNa
  Fospropofol AUC0-T/mg FOSP DiNa: 4.28 (ng · h/mL)/mg
  Fospropofol AUC0-∞/mg FOSP DiNa: 4.41 (ng · h/mL)/mg
  Fospropofol Cmax/mg FOSP DiNa: 9.89 (ng/mL)/mg
Dose 400 mg FOSPDiNa
  Fospropofol AUC0-T/mg FOSP DiNa: 5.51 (ng · h/mL)/mg
  Fospropofol AUC0-∞/mg FOSP DiNa: 5.58 (ng · h/mL)/mg
  Fospropofol Cmax/mg FOSP DiNa: 11.15 (ng/mL)/mg
Dose 800 mg FOSPDiNa
  Fospropofol AUC0-T/mg FOSP DiNa: 4.11 (ng · h/mL)/mg
  Fospropofol AUC0-∞/mg FOSP DiNa: 4.20 (ng · h/mL)/mg
  Fospropofol Cmax/mg FOSP DiNa: 7.55 (ng/mL)/mg
Dose 1000 mg FOSPDiNa
  Fospropofol AUC0-T/mg FOSP DiNa: 4.70 (ng · h/mL)/mg
  Fospropofol AUC0-∞/mg FOSP DiNa: 4.85 (ng · h/mL)/mg
  Fospropofol Cmax/mg FOSP DiNa: 8.24 (ng/mL)/mg
Dose 1200 mg FOSPDiNa
  Fospropofol AUC0-T/mg FOSP DiNa: 3.67 (ng · h/mL)/mg
  Fospropofol AUC0-∞/mg FOSP DiNa: 3.75 (ng · h/mL)/mg
  Fospropofol Cmax/mg FOSP DiNa: 5.93 (ng/mL)/mg
Dose 1600 mg FOSPDiNa
  Fospropofol AUC0-T/mg FOSP DiNa: 3.81 (ng · h/mL)/mg
  Fospropofol AUC0-∞/mg FOSP DiNa: 3.94 (ng · h/mL)/mg
  Fospropofol Cmax/mg FOSP DiNa: 6.40 (ng/mL)/mg
Dose 2000 mg FOSPDiNa
  Fospropofol AUC0-T/mg FOSP DiNa: 5.41 (ng · h/mL)/mg
  Fospropofol AUC0-∞/mg FOSP DiNa: 5.49 (ng · h/mL)/mg
  Fospropofol Cmax/mg FOSP DiNa: 8.54 (ng/mL)/mg
female, human, plasma, oral, 800 mg, females only (800 mg cohort), Mean, read-out: Fospropofol Auc1
  AUC: 3050 ng·h/mL
female, human, plasma, oral, 800 mg, females only (800 mg cohort), Mean, read-out: Fospropofol Auc2
  AUC: 3710 ng·h/mL
female, human, plasma, oral, 800 mg, females only (800 mg cohort), Mean, read-out: Fospropofol Auc4
  AUC: 3870 ng·h/mL
female, human, plasma, oral, 800 mg, females only (800 mg cohort), Mean, read-out: Fospropofol Cmax
  Cmax: 6730 ng/mL
female, human, plasma, oral, 800 mg, females only (800 mg cohort), Mean
  Tmax: 22.2 min
female, human, plasma, oral, 800 mg, females only (800 mg cohort), individual subjects (Subject No. in c0), read-out: Fospropofol Auc1
  AUC: 4160 ng·h/mL
female, human, plasma, oral, 800 mg, females only (800 mg cohort), individual subjects (Subject No. in c0), read-out: Fospropofol Auc2
  AUC: 5000 ng·h/mL
female, human, plasma, oral, 800 mg, females only (800 mg cohort), individual subjects (Subject No. in c0), read-out: Fospropofol Auc4
  AUC: 5160 ng·h/mL
female, human, plasma, oral, 800 mg, females only (800 mg cohort), individual subjects (Subject No. in c0)
  Tmax: 30 min
Females only (800 mg cohort)
  Fospropofol Auc1 CV (%): 23.3%
  Fospropofol Auc2 CV (%): 23.1%
  Fospropofol Auc4 CV (%): 23.3%
  Fospropofol Cmax CV (%): 32.2%
  Fospropofol Tmax CV (%): 27.3%
Oral fospropofol disodium 200 mg, mean
  Fospropofol CL/F: 277 L/h
Oral fospropofol disodium 400 mg, mean
  Fospropofol CL/F: 211 L/h
Oral fospropofol disodium 800 mg, mean
  Fospropofol CL/F: 254 L/h
Oral fospropofol disodium 1000 mg, mean
  Fospropofol CL/F: 229 L/h
[4]
  Fospropofol AUC0-T: 4399 ng·h/mL
  Fospropofol CL/F: 288 L/h
Oral fospropofol disodium 1200 mg, mean
  Fospropofol CL/F: 288 L/h
Oral fospropofol disodium 1600 mg, mean
  Fospropofol CL/F: 270 L/h
Oral fospropofol disodium 2000 mg, mean
  Fospropofol CL/F: 204 L/h
[5]
  Fospropofol AUC1 CV (%): 23.6%
  Fospropofol AUC2 CV (%): 26.0%
  Fospropofol AUC4 CV (%): 27.2%
  Fospropofol Cmax CV (%): 30.7%
  Fospropofol Tmax CV (%): 29.2%
